In patent publication US12274689B2, “Compound for the management of feline diabetes” (INCREVET, INC., priority 2019, dated 2025):

Key:
db/db mice = experiment: non-fasting blood glucose in db/db mice, 28-day oral dosing (study 350); type: in vivo; conditions: for non-fasting blood glucose concentration: n = 8
[1] = system: healthy purpose-bred cats; experiment: urinary glucose excretion in healthy cats after capsule dosing (studies 1 and 2); type: in vivo, cat
healthy cats = experiment: 21-day high-dose study in healthy cats (study 3); type: in vivo, cat; conditions: 15 mg kg^−1 bid (30 mg kg^−1 day^−1) for 21 days
Source text: All cats regained weight when the dosing ended. Because diabetic cats are often presented as a result of weight loss, the degree of […] would clearly be adverse and incompatible with treatment.

[2] = system: client-owned cats diagnosed with diabetes mellitus; experiment: field effectiveness study in client-owned diabetic cats; type: in vivo, cat; set-up: mean serum glucose: unit: mg/dL
Protocol: In a field effectiveness study, client-owned cats that had been diagnosed with diabetes mellitus based on: i) two separate fasting (≥6 h) blood glucose measurements>250 mg dL^−1; ii) glucosuria; iii) fructosamine>450 μmol L^−1 (subsequently changed to >360 μmol L^−1 due to a change in the testing laboratory methodology), and iv) one or more of the following: polyuria/polydipsia, polyphagia and/or weight loss (documented in the cat's medical records) were enrolled. Cats with suspected diabetes mellitus were evaluated during visit 1 (within 7 days prior to day 0). […] Cats were prescribed a diet for diabetic animals (Purina DM, either dry or wet variety). Cats were returned to the clinic for evaluation of glycemic control during visits 3 (day 14±3), 4 (day 28±3), and 5 (day 56±3). The treatment period was from visit 2 (day 0) through visit 5 (day 56±3). A cat could have been brought back to the clinic at any time for unscheduled visits if such visits were determined to be necessary by the owner or investigator. Eight-hour blood glucose curves (blood samples collected every 2 h±15 min for 8 h) were conducted at every visit starting with visit 2 (day 0) and blood glucose was measured using an AlphaTRAK 2 glucometer (Abbott Laboratories). Blood samples for hematology and serum chemistry were collected at screening and during each scheduled visit after initiation of dosing. A central laboratory was used to evaluate all clinical pathology samples (blood, serum, and urine) that are not analyzed in the clinic for blood glucose curves.
Serum chemistries included assessment of fructosamine. […] To accommodate the change in reference range, data were harmonized by expression as a percentage of the upper limit of normal and log-transformed percentages were analyzed by repeated measures ANCOVA with an unstructured covariance and visit as a fixed effect. The upper limit of normal for the testing laboratory for fasting serum glucose was 155 mg dL^−1. The data below were tabulated after 32 cats completed the day 56 visit.
Each cat was classified as having achieved (or not achieved) glycemic control on Day 56±3 (success/failure). Treatment success was defined as improvement of at least one blood glucose variable (BG mean<250 mg dL^−1; or fructosamine<450 μmol/L or <360 μmol/L, depending on the assay reference range at the time of the analysis), and the veterinarian's assessment of adequate glycemic control at the final evaluation. All cats that remained on-study to V5 were considered treatment successes. Of the 8 cats that were considered treatment failures, 6 cats were removed from the study following an SAE, 1 cat was removed at the sponsor's request, and 1 cat was removed due to the use of a study-proscribed medication to treat an AE. Table 3 also tallies the cats achieving a fructosamine concentration less than the upper limit of normal (356 μmol L^−1 initially and 275 μmol L^−1 subsequently).
Responsibility for assessing clinical signs of diabetes mellitus was divided between owners and treating veterinarians. Weight was recorded at each visit by the veterinarian, and the signs of polydipsia, polyuria and polyphagia were recorded at each visit by the owner, using a four-point (0 to 3) integer score in which low scores represented favorable ratings.
In addition to providing a measure of the status of the cat as a function of time, the quantitative assessments were used to produce a binary outcome of success or failure at study completion. To score as a success by weight, the weight at Visit 5 was to exceed the weight at Visit 2 (treatment initiation). To score as success by the other signs the owner score at visit 5 was to be less than the owner score at Visit 2.
Glucose curves were constructed by glucometer measurement of blood sampled at hours 0, 2, 4, 6 and 8 post-dose. […]

[3] = by visit, non-parametric test highly significant

doses with undesired effects attributed to SGLT1 inhibition, multiple of doses producing the maximum pharmacodynamic effect ([1]; healthy cats): 5 to 10 times
Structure (SMILES): OC[C@H]1O[C@@H](c2ccc(Cl)c(Cc3ccc(OCCOC4CC4)cc3)c2)[C@H](O)[C@@H](O)[C@@H]1O [bexagliflozin, (2S,3R,4R,5S,6R)-2-(4-chloro-3-(4-(2-cyclopropoxyethoxy)benzyl)phenyl)-6-(hydroxymethyl)tetrahydro-2H-pyran-3,4,5-triol]
non-fasting blood glucose concentration (db/db mice; 0.067 mg kg^−1 oral once a day, Day 0, mean ± SD): 565.5 ± 75.9 mg/dL
non-fasting blood glucose concentration (db/db mice; 0.067 mg kg^−1 oral once a day, Day 1, 6 h post-dose, mean ± SD): 526.0 ± 97.0 mg/dL
non-fasting blood glucose concentration (db/db mice; 0.067 mg kg^−1 oral once a day, Day 7, 6 h post-dose, mean ± SD): 459.5 ± 69.9 mg/dL
non-fasting blood glucose concentration (db/db mice; 0.067 mg kg^−1 oral once a day, Day 14, 6 h post-dose, mean ± SD): 441.7 ± 119.6 mg/dL
non-fasting blood glucose concentration (db/db mice; 0.067 mg kg^−1 oral once a day, Day 21, 6 h post-dose, mean ± SD): 497.5 ± 98.8 mg/dL
non-fasting blood glucose concentration (db/db mice; 0.067 mg kg^−1 oral once a day, Day 28, 6 h post-dose, mean ± SD): 472.1 ± 113.3 mg/dL
non-fasting blood glucose concentration (db/db mice; 0.067 mg kg^−1 oral once a day, Day −3, mean ± SD): 563.6 ± 105.2 mg/dL
non-fasting blood glucose concentration (db/db mice; 0.2 mg kg^−1 oral once a day, Day 0, mean ± SD): 590.0 ± 92.9 mg/dL
non-fasting blood glucose concentration (db/db mice; 0.2 mg kg^−1 oral once a day, Day 1, 6 h post-dose, mean ± SD): 411.3 ± 86.8 mg/dL
non-fasting blood glucose concentration (db/db mice; 0.2 mg kg^−1 oral once a day, Day 7, 6 h post-dose, mean ± SD): 390.8 ± 92.3 mg/dL
non-fasting blood glucose concentration (db/db mice; 0.2 mg kg^−1 oral once a day, Day 14, 6 h post-dose, mean ± SD): 364.7 ± 121.6 mg/dL
non-fasting blood glucose concentration (db/db mice; 0.2 mg kg^−1 oral once a day, Day 21, 6 h post-dose, mean ± SD): 379.8 ± 47.4 mg/dL
non-fasting blood glucose concentration (db/db mice; 0.2 mg kg^−1 oral once a day, Day 28, 6 h post-dose, mean ± SD): 333.5 ± 79.9 mg/dL
non-fasting blood glucose concentration (db/db mice; 0.2 mg kg^−1 oral once a day, Day −3, mean ± SD): 546.9 ± 92.8 mg/dL
non-fasting blood glucose concentration (db/db mice; 0.67 mg kg^−1 oral once a day, Day 0, mean ± SD): 574.4 ± 90.5 mg/dL
non-fasting blood glucose concentration (db/db mice; 0.67 mg kg^−1 oral once a day, Day 1, 6 h post-dose, mean ± SD): 404.3 ± 86.4 mg/dL
non-fasting blood glucose concentration (db/db mice; 0.67 mg kg^−1 oral once a day, Day 7, 6 h post-dose, mean ± SD): 370.1 ± 96.5 mg/dL
non-fasting blood glucose concentration (db/db mice; 0.67 mg kg^−1 oral once a day, Day 14, 6 h post-dose, mean ± SD): 379.6 ± 58.6 mg/dL
non-fasting blood glucose concentration (db/db mice; 0.67 mg kg^−1 oral once a day, Day 21, 6 h post-dose, mean ± SD): 300.6 ± 97.6 mg/dL
non-fasting blood glucose concentration (db/db mice; 0.67 mg kg^−1 oral once a day, Day 28, 6 h post-dose, mean ± SD): 306.7 ± 98.4 mg/dL
non-fasting blood glucose concentration (db/db mice; 0.67 mg kg^−1 oral once a day, Day −3, mean ± SD): 565.5 ± 87.5 mg/dL
non-fasting blood glucose concentration (db/db mice; 2 mg kg^−1 oral once a day, Day 0, mean ± SD): 541.6 ± 84.4 mg/dL
non-fasting blood glucose concentration (db/db mice; 2 mg kg^−1 oral once a day, Day 1, 6 h post-dose, mean ± SD): 382.7 ± 111.9 mg/dL
non-fasting blood glucose concentration (db/db mice; 2 mg kg^−1 oral once a day, Day 7, 6 h post-dose, mean ± SD): 330.8 ± 101.1 mg/dL
non-fasting blood glucose concentration (db/db mice; 2 mg kg^−1 oral once a day, Day 14, 6 h post-dose, mean ± SD): 303.5 ± 74.0 mg/dL
non-fasting blood glucose concentration (db/db mice; 2 mg kg^−1 oral once a day, Day 21, 6 h post-dose, mean ± SD): 319.7 ± 74.2 mg/dL
non-fasting blood glucose concentration (db/db mice; 2 mg kg^−1 oral once a day, Day 28, 6 h post-dose, mean ± SD): 315.2 ± 81.3 mg/dL
non-fasting blood glucose concentration (db/db mice; 2 mg kg^−1 oral once a day, Day −3, mean ± SD): 603.9 ± 88.9 mg/dL
blood glucose values, % of control (db/db mice; 28-day administration of 0.067 mg kg^−1): 79.74%
blood glucose values, % of control (db/db mice; 28-day administration of 0.2 mg kg^−1): 56.33%
blood glucose values, % of control (db/db mice; 28-day administration of 0.67 mg kg^−1): 51.81%
blood glucose values, % of control (db/db mice; 28-day administration of 2 mg kg^−1): 53.25%
blood glucose, level below which it was not reduced (db/db mice; sole agent, any dose group): ≥ 300 mg/dL
loose stools and/or diarrhea ([1]; healthy cats exposed to the higher quantities): dose-dependent increase in the severity of loose stools and/or diarrhea
dose at which the maximum glucosuria was observed ([1]; healthy cats, gelatin capsules, urinary glucose excretion over 24 h after dosing): approximately 3 mg kg^−1
body weight (healthy cats): cats lost weight throughout the study
treatment effect on the gain in body mass per cat ([2]; baseline to week 8, p<0.0001): highly significant
cats that either maintained or increased their weight ([2]; by day 56): 82%
mean owner scores for polydipsia [2, 3]: declined
mean owner scores for polyuria [2, 3]: declined
mean owner scores for polyphagia ([2]; by visit, non-parametric test significant): declined
weight of case 5 at study end ([2]; case 5, decreased from 5.4 kg): 5.1 kg
treatment outcome of cats with IGF-1 above the upper limit of normal (92 nmol/L) ([2]; cases 7, 28 and 30, V5): All three cases were considered treatment successes
symptomatic hypoglycemia ([2]; diabetic cats, field study): None of the cats exhibited a symptomatic hypoglycemia
Veterinarian Glycemic Control Criteria Met ([2]; individual cats, V5): Yes
Mean BG Criteria Met ([2]; individual cats, V5, BG mean <250 mg dL^−1): Yes
cats removed from the study following an SAE ([2]; of 40 cats enrolled): 6 cats
Any Success, Col Sum (number of cats) ([2]; of 40 enrolled cats): 31
Non-Weight Success, Col Sum (number of cats) ([2]; of 40 enrolled cats): 30
Polydipsia Success, Col Sum (number of cats) ([2]; of 40 enrolled cats): 23
Polyphagia Success, Col Sum (number of cats) ([2]; of 40 enrolled cats): 17
Polyuria Success, Col Sum (number of cats) ([2]; of 40 enrolled cats): 24
Weight Success, Col Sum (number of cats) ([2]; of 40 enrolled cats): 22
cats achieving a fructosamine concentration below the upper limit of normal ([2]; of the 32 cats completing the study): 26 cats
average cat weight ([2]; over the course of the study): increased
cats considered treatment successes ([2]; thirty-two of the 40 cats enrolled, Day 56±3): 80%
fructosamine of cats with elevated IGF-1 ([2]; three cats with elevated serum IGF-1): achieved a normal fructosamine concentration
mean serum β-hydroxybutyrate concentration ([2]; week 8, 95% CI 1.40, 2.20, upper limit of normal 1.9 mg dL^−1): 1.76 mg/dL
mean serum fructosamine, % of the upper limit of normal ([2]; week 8, 95% CI 80.0%, […]): 86.7%
mean serum glucose ([2]; week 8, 95% CI 127, 163): 144
mean of the five blood glucose determinations ([2]; week 8, in-clinic blood glucose curve, 95% CI 102.8, 128.4): 114.9 mg/dL
